{
  "source": "ChEMBL document CHEMBL3132769",
  "about": "“Fragment growing to retain or alter the selectivity of anchored kinase hinge-binding fragments” (Medchemcomm, 2014)",
  "key": {"[1]": {"biological_target": "T1, Serine/threonine-protein kinase D3 (Homo sapiens) (UniProt O94806)", "T1 sequence (whole entry)": "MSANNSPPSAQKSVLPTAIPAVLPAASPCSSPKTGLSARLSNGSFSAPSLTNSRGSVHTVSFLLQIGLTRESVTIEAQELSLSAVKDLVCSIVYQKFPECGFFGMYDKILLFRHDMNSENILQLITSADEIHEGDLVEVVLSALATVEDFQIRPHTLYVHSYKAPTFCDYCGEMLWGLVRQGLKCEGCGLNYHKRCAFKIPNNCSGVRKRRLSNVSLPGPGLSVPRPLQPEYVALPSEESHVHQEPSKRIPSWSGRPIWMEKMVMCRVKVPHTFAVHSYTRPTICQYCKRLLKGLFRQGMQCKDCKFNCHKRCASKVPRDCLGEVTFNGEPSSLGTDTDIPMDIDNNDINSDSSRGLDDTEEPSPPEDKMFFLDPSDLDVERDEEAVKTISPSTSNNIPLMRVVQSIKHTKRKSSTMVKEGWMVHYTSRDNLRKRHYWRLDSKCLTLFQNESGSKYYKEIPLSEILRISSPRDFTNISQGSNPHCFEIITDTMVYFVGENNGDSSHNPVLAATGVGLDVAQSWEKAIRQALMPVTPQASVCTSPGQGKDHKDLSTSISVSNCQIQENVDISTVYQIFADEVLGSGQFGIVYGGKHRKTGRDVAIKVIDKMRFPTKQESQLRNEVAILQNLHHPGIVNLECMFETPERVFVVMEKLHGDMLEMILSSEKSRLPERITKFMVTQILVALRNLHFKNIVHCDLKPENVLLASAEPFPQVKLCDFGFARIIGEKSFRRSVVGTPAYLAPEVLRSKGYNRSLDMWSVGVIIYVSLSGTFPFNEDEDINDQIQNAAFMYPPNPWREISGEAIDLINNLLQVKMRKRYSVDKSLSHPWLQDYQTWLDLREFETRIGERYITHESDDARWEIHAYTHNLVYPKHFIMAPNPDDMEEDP", "experiment": "Inhibition of human full length PKD3 expressed in baculovirus assessed as substrate phosphorylation using fluorescence-labelled peptides as substrate at 2 uM after 90 mins by microfluidic peptide phosphorylation assay"}, "Homo sapiens": {"species": "Homo sapiens", "experiment": "Inhibition of human P70S6K catalytic domain expressed in baculovirus assessed as substrate phosphorylation using fluorescence-labelled peptides as substrate at 2 uM after 90 mins by microfluidic peptide phosphorylation assay"}, "[2]": {"biological_target": "Fibroblast growth factor receptor 3 (Homo sapiens) (UniProt P22607)", "sequence (P22607 23-806 limits assumed)": "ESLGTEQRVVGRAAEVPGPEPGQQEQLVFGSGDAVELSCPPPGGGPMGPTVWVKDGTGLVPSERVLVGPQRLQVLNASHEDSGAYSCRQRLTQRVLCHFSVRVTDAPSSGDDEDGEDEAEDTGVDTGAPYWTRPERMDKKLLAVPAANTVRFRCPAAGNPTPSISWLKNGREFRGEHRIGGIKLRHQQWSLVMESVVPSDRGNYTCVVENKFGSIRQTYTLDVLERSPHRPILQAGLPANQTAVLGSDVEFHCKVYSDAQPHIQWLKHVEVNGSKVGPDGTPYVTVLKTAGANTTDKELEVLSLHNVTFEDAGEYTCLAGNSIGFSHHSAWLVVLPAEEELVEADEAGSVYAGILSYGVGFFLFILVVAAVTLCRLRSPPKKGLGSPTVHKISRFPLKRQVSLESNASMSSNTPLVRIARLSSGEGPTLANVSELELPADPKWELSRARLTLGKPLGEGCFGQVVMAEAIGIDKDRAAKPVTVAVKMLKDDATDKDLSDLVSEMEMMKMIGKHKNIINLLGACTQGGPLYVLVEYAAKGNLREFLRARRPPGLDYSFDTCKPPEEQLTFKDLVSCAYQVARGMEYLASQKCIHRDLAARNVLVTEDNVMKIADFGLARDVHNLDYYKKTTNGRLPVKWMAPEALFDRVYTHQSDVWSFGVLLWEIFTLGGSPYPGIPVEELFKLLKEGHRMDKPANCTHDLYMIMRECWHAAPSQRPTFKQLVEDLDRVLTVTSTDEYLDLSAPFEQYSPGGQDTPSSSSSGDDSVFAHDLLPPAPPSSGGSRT", "experiment": "Inhibition of human FGFR3 catalytic domain expressed in baculovirus assessed as substrate phosphorylation using fluorescence-labelled peptides as substrate at 2 uM after 90 mins by microfluidic peptide phosphorylation assay"}, "[3]": {"biological_target": "T2, Serine/threonine-protein kinase Sgk2 (Homo sapiens) (UniProt Q9HBY8)", "T2 sequence (whole entry)": "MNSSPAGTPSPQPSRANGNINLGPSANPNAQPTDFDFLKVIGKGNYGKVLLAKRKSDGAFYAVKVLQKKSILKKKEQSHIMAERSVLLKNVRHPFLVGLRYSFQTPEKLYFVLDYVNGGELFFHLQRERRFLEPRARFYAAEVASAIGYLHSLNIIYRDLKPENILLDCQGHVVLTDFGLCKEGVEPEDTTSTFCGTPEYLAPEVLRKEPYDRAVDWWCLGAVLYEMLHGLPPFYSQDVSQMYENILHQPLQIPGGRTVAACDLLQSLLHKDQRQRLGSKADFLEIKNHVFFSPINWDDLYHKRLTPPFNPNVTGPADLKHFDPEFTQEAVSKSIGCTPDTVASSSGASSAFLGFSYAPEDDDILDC", "experiment": "Inhibition of human full length SGK2 expressed in baculovirus assessed as substrate phosphorylation using fluorescence-labelled peptides as substrate at 9 uM after 90 mins by microfluidic peptide phosphorylation assay"}, "[4]": {"biological_target": "T3, Mitogen-activated protein kinase 13 (Homo sapiens) (UniProt O15264)", "T3 sequence (whole entry)": "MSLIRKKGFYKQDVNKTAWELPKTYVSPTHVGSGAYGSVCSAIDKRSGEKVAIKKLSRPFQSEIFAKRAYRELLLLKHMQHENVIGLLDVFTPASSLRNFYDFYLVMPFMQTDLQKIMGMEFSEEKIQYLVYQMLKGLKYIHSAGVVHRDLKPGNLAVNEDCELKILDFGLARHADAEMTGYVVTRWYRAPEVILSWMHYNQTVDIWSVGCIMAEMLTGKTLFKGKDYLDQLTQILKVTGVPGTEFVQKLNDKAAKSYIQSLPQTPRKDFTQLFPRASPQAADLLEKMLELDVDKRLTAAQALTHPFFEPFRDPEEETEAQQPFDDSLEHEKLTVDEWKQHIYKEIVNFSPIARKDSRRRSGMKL", "experiment": "Inhibition of human full length p38 delta expressed in Escherichia coli cell assessed as substrate phosphorylation using fluorescence-labelled peptides as substrate at 95 uM after 90 mins by microfluidic peptide phosphorylation assay"}, "[5]": {"biological_target": "Rho-associated protein kinase 2 (Homo sapiens) (UniProt O75116)", "sequence (O75116 whole entry, looked up, the tested form may be a part)": "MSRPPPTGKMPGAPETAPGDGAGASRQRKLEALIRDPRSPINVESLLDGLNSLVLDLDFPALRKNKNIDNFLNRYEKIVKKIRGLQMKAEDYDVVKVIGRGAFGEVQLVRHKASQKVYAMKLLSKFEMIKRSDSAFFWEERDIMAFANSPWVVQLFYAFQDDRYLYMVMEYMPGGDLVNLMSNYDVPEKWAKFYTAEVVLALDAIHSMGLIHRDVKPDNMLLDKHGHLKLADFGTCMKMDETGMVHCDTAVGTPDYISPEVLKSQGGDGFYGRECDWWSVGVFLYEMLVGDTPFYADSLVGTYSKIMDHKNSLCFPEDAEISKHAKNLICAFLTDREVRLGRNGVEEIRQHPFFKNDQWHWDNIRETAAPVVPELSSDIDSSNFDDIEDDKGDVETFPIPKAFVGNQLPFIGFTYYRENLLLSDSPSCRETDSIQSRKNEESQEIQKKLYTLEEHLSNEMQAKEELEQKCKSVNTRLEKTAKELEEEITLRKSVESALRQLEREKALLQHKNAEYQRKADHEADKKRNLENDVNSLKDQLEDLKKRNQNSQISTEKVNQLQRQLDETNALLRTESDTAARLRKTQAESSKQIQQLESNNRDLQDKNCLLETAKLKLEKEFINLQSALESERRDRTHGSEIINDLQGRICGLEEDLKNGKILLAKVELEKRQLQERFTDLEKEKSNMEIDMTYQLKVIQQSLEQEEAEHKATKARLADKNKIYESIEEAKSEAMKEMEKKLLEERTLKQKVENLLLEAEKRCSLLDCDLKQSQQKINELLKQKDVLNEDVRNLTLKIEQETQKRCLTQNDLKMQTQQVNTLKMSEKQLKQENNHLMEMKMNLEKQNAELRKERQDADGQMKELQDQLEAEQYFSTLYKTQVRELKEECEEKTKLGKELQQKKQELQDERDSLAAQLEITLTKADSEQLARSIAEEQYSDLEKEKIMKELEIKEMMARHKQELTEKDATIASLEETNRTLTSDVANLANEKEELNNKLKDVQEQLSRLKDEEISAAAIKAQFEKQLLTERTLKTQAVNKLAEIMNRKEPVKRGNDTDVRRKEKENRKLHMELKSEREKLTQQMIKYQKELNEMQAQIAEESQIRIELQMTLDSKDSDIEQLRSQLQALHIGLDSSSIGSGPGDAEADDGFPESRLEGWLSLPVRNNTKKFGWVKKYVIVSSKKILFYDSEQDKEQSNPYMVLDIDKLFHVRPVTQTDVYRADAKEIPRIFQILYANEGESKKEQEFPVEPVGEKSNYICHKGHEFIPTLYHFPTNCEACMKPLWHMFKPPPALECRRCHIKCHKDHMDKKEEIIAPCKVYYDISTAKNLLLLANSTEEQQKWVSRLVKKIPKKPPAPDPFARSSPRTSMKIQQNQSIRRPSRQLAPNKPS", "experiment": "Inhibition of human ROCK2 catalytic domain expressed in baculovirus assessed as substrate phosphorylation using fluorescence-labelled peptides as substrate at 95 uM after 90 mins by microfluidic peptide phosphorylation assay"}, "[6]": {"biological_target": "Protein kinase C beta type (Homo sapiens) (UniProt P05771)", "sequence (P05771 2-671 limits assumed)": "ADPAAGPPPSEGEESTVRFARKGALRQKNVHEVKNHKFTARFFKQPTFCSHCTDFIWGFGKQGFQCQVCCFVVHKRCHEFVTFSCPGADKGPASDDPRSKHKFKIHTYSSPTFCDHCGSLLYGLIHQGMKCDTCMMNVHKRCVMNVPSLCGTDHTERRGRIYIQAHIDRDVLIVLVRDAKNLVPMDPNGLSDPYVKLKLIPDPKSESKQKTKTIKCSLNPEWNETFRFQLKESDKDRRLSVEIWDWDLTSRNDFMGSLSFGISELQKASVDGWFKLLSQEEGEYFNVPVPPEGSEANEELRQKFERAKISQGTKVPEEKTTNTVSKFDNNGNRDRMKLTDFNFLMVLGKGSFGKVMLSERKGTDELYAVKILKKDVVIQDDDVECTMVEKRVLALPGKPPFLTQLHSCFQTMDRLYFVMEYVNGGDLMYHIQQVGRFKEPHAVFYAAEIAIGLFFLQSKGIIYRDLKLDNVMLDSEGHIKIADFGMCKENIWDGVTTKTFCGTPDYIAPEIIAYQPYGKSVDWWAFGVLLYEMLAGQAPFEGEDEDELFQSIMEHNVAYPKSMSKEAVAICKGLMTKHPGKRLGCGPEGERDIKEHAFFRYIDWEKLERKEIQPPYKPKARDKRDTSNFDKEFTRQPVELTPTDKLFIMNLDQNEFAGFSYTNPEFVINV", "experiment": "Inhibition of human truncated PKC beta1 expressed in baculovirus assessed as substrate phosphorylation using fluorescence-labelled peptides as substrate at 1000 uM after 90 mins by microfluidic peptide phosphorylation assay"}, "[7]": {"biological_target": "T4, Serine/threonine-protein kinase Sgk1 (Homo sapiens) (UniProt O00141)", "T4 sequence (whole entry)": "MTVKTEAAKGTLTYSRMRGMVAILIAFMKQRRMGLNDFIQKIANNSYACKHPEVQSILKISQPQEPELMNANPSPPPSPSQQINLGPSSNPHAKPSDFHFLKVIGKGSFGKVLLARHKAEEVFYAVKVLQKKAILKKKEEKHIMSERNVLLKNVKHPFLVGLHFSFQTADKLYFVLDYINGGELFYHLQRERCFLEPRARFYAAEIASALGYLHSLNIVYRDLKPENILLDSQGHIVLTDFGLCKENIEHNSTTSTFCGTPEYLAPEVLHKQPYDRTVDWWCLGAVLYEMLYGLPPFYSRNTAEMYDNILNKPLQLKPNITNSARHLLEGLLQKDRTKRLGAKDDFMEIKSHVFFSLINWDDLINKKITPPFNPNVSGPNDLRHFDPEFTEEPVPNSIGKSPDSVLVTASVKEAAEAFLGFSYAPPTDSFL", "experiment": "Inhibition of human truncated SGK1 expressed in baculovirus assessed as substrate phosphorylation using fluorescence-labelled peptides as substrate at 1000 uM after 90 mins by microfluidic peptide phosphorylation assay"}, "[8]": {"biological_target": "Protein kinase C eta type (Homo sapiens) (UniProt P24723)", "sequence (P24723 whole entry, the tested form may be a part)": "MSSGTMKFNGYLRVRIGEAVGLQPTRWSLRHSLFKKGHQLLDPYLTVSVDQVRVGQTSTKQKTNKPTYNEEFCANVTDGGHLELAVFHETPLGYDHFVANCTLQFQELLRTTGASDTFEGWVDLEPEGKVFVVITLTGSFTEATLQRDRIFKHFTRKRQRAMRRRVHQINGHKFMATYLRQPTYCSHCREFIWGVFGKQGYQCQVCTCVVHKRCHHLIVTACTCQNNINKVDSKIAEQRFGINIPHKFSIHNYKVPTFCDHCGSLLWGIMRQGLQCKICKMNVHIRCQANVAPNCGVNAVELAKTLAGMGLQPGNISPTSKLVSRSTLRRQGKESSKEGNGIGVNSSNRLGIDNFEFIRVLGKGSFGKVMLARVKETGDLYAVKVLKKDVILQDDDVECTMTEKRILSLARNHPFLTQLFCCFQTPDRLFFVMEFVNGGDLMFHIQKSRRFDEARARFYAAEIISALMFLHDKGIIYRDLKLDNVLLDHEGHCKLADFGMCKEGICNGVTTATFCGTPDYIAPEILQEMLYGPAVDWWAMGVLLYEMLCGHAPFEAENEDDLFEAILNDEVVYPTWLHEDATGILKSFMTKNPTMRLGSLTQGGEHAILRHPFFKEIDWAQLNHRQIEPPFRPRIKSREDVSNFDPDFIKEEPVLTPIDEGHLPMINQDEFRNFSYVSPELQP", "experiment": "Inhibition of human truncated PKC eta expressed in baculovirus assessed as substrate phosphorylation using fluorescence-labelled peptides as substrate at 70 uM after 90 mins by microfluidic peptide phosphorylation assay"}, "[9]": {"biological_target": "Platelet-derived growth factor receptor alpha (Homo sapiens) (UniProt P16234)", "sequence (P16234 whole entry, the tested form may be a part)": "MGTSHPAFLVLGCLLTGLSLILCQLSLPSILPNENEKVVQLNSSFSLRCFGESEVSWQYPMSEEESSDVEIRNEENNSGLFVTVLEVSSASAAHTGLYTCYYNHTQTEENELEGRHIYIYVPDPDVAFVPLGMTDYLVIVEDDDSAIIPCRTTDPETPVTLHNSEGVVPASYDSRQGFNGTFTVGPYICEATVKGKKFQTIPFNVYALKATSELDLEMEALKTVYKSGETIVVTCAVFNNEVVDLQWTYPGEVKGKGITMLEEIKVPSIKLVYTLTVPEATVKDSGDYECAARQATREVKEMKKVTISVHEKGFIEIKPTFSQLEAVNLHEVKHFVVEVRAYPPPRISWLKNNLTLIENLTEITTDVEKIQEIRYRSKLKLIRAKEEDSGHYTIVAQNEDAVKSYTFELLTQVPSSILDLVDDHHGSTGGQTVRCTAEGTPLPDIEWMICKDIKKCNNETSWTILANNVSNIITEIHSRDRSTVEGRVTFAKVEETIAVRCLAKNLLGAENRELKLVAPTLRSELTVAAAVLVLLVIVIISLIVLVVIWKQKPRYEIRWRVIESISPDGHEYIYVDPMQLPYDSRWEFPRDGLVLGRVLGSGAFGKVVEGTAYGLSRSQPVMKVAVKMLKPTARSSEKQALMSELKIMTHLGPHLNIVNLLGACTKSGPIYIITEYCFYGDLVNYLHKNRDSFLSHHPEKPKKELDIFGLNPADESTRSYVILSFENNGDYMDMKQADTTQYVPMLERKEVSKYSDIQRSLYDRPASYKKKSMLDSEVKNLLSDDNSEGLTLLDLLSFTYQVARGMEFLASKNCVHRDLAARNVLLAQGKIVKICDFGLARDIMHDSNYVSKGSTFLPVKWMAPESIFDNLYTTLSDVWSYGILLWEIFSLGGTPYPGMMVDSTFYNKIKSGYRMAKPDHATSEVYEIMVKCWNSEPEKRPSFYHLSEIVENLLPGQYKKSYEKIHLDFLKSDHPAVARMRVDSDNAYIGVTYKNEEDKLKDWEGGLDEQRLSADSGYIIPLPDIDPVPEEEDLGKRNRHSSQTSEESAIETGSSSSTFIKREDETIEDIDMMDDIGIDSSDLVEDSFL", "experiment": "Inhibition of human PDGFR alpha catalytic domain expressed in baculovirus assessed as substrate phosphorylation using fluorescence-labelled peptides as substrate at 70 uM after 90 mins by microfluidic peptide phosphorylation assay"}},
  "data": [
    {"smiles": "NC1CCN(c2ncnc3[nH]ccc23)CC1", "values": [
      {"measurement": "inhibition", "setting": "[1]", "result": 0, "unit": "%"},
      {"measurement": "inhibition", "setting": "Homo sapiens", "result": 3.5, "unit": "%"},
      {"measurement": "inhibition", "setting": "[2]", "result": 0, "unit": "%"}
    ]},
    {"smiles": "NCC1CN(c2ncnc3[nH]c4cnccc4c23)CCO1", "note": "(stereo not given)", "values": [
      {"measurement": "inhibition", "setting": "[3]", "result": 48.5, "unit": "%"}
    ]},
    {"smiles": "NCCc1ccc(-c2ncnc3[nH]cnc23)cc1", "values": [
      {"measurement": "inhibition", "setting": "[4]", "result": 13, "unit": "%"},
      {"measurement": "inhibition", "setting": "[5]", "result": 93.5, "unit": "%"}
    ]},
    {"smiles": "c1cnc2[nH]ccc2c1", "values": [
      {"measurement": "inhibition", "setting": "[6]", "result": 46, "unit": "%"},
      {"measurement": "inhibition", "setting": "[7]", "result": 94, "unit": "%"}
    ]},
    {"smiles": "CNCc1ccc(-c2ncnc3[nH]cnc23)cc1", "values": [
      {"measurement": "inhibition", "setting": "[8]", "result": 78.5, "unit": "%"},
      {"measurement": "inhibition", "setting": "[9]", "result": 16.5, "unit": "%"}
    ]}
  ]
}
